Test results as given in publication PMC8406801, “Naringenin Inhibits Platelet Activation and Arterial Thrombosis Through Inhibition of Phosphoinositide 3-Kinase and Cyclic Nucleotide Signaling” (Frontiers in Pharmacology, 2021).
Values joined by “and” are separate entries in the source; they are usually repeats but may differ in a detail not shown here. Equal entries are not always repeated. Structures can show the parent of a compound that is named as a salt.

Legend:
[1] = tested on: VASP Ser239 phosphorylation; experiment: Immunoblotting of phospho-VASP (Ser239) in ADP-stimulated washed platelets, with or without PKA, PKG, PKC inhibitors; format: cell-based, rat; conditions: ADP 10 μmol/L
Method: For in vitro platelet aggregation, aliquots of washed platelets were preincubated with vehicle or various concentrations of naringenin for 5 min and stimulated with ADP (10 μmol/L) under stirring at 37°C for 5 min. For ex vivo platelet aggregation, PRP was incubated at 37°C for 5 min and stimulated with ADP (5 μmol/L) under stirring at 37 °C. The platelet aggregation was terminated by adding ethylenediaminetetraacetic acid (EDTA; 10 mM). Total protein was prepared using RIPA lysis buffer and protein content was determined by bicinchoninic acid (BCA) protein assay kit. Equal amounts of platelet proteins (30 μg) were separated on 10% SDS polyacrylamide gel electrophoresis (SDS-PAGE) and then transferred to poly vinylidene difluoride (PVDF) membranes and subjected to western blot. Blots were blocked with TBS-Tween 20 containing 5% BSA and probed with primary antibodies diluted in blocking solution at 4°C overnight followed by incubation with the corresponding HRP secondary antibodies. The protein bands were visualized using enhanced chemiluminescence (ECL).
VASP is a substrate for cAMP- and cGMP- dependent protein kinases, which mediate cAMP- and cGMP-dependent inhibitory signaling in platelets, respectively. Increased cAMP levels followed by the activation of cAMP-dependent protein kinase A (PKA) phosphorylates VASP at position Ser157, whereas the elevation of cGMP leads to VASP phosphorylation at position Ser239 by cGMP-dependent protein kinase G (PKG) ([Aszódi et al., 1999]; [Li et al., 2003a]). To further examine whether naringenin modulates cAMP- or cGMP-mediated inhibitory signaling, the phosphorylation of VASP (Ser157 and Ser239) in washed platelets on stimulation with ADP were measured in the absence or presence of naringenin (100, 200, 400, and 800 μM). […] To further confirm the antiplatelet effects of naringenin through PKA-dependent signaling, the effects of naringenin on platelet aggregation were measured in the presence of PKG inhibitor (Rp-8-Br-PET-cGMPS) and PKA inhibitor (H89).
FIGURE 7 Naringenin promotes VASP phosphorylation. The effects of naringenin on phosphorylation of VASP (at positions Ser 157 and Ser239) were measured in washed platelets upon stimulation with ADP (10 μmol/L) by western blotting (A). The blots shown are representative of three separate experiments. The phosphorylation levels were quantified by ImageJ 1.47v software. The level of phosphorylation obtained with vehicle control (0 μM) was taken as 1 (B,C). R represents the phosphorylation level in resting platelets. Data are expressed as means ± SD (n = 3). *p < 0.05, ***p < 0.001 compared with the vehicle control group. VASP phosphorylation at Ser239 was also analyzed in washed platelets incubated with 5 μmol/L PKA (H89), 30 μmol/L PKG (Rp-8-Br-PET-cGMPS), or 5 μmol/L PKC (GF109203X) inhibitors before treatment with naringenin (D). Washed platelets were incubated with vehicle or naringenin (200 μmol/L) at 37°C in the presence or absence of 5 μmol/L PKA (H89) or 30 μmol/L PKG (Rp-8-Br-PET-cGMPS) inhibitors. After treatment, platelets were stimulated with ADP (10 μmol/L) to trigger aggregation (E). Data are expressed as means ± SD (n = 6). ***p < 0.001 compared with the ADP-treated group, ^# p < 0.05, ^### p < 0.001 compared with naringenin alone or H89 alone.

[2] = tested on: washed rat platelets; experiment: ADP (10 μM)-induced aggregation of washed rat platelets; format: cell-based; conditions: for platelet aggregation when incubated with naringenin after kinase inhibitor: naringenin 200 μmol/L; for Aggregation (%): raw data
Method: Platelet-rich plasma (PRP) was obtained, and after the addition of 100 ng/ml PGE1, platelets were pelleted at 900 × g for 10 min. […] Washed platelets were preincubated with vehicle (0.4% dimethyl sulfoxide) or various concentrations of naringenin in the presence of 2 mM CaCl2 for 5 min at 37°C, and then further stimulated by ADP (10 μM), thrombin (0.2 U/mL) or collagen (2 μg/ml). The maximum platelet aggregation rate was detected within 5 min with continuous stirring.
Platelet aggregation was induced by ADP using washed platelets and PRP. Washed platelets were preincubated with vehicle (containing 0.4% DMSO) or different doses (100, 200, 400, and 800 μM) of naringenin or naringin for 5 min before activation with ADP (10 μM) for 5 min.
(§1) FIGURE 1 Effects of naringenin and naringin on platelet aggregation. Chemical structure of naringin (A) and naringenin (B). The effects of naringin (C) or naringenin (D) on PRP were measured following stimulation with 10 μmol/L ADP. Rat washed platelet aggregation performed with or without different concentrations of naringin (E) or naringenin (F) was recorded after stimulation with 10 μmol/L ADP. Similarly, Washed platelet aggregation performed with vehicle or various concentrations of naringenin was recorded after stimulation with 0.2 U/mL thrombin (G) or 2 μg/ml collagen (H). WP represents washed platelets. Data are expressed as means ± SD (n = 6), the level of aggregation obtained at 5 min with vehicle-treated samples (0 μM) was taken as 100%. *p < 0.05, **p < 0.01, ***p < 0.001 compared with the vehicle control group.

[3] = tested on: washed rat platelets; experiment: as above; format: cell-based; conditions: Figure 7E
[4] = tested on: PRP (platelet-rich plasma); experiment: ADP (10 μmol/L)-induced aggregation of PRP in vitro; format: cell-based, rat; conditions: PRP, ADP 10 μmol/L, single replicates; for Aggregation (%): raw data
Method: Washed rat platelets were prepared as described previously ([Gao et al., 2011]) with a minor modification. Briefly, rat blood was drawn from the abdominal aorta into the siliconized vacutainers containing 1:9 (v/v) 3.8% sodium citrate, supplemented with 100 ng/ml prostaglandin E1 (PGE1) and centrifuged at 300 × g for 6 min at room temperature. Platelet-rich plasma (PRP) was obtained, and after the addition of 100 ng/ml PGE1, platelets were pelleted at 900 × g for 10 min. Platelets were washed once in Tyrode’s buffer (12 mM NaHCO3, 138 mM NaCl, 5.5 mM glucose, 2.9 mM KCl, 2 mM MgCl2, 0.42 mM NaH2PO4, 10 mM HEPES, pH 7.4) containing 100 ng/ml PGE1, and finally resuspended in Tyrode’s buffer containing 0.02 U/mL apyrase to a final concentration of 4×10^8 cells/mL. Washed platelets were preincubated with vehicle (0.4% dimethyl sulfoxide) or various concentrations of naringenin in the presence of 2 mM CaCl2 for 5 min at 37°C, and then further stimulated by ADP (10 μM), thrombin (0.2 U/mL) or collagen (2 μg/ml). The maximum platelet aggregation rate was detected within 5 min with continuous stirring.
Platelet aggregation was induced by ADP using washed platelets and PRP. Washed platelets were preincubated with vehicle (containing 0.4% DMSO) or different doses (100, 200, 400, and 800 μM) of naringenin or naringin for 5 min before activation with ADP (10 μM) for 5 min. […] For example, naringenin, at doses of 100 and 800 μM, decreased ADP-induced platelet aggregation to 54.5 ± 6.2% and 6.3 ± 1.7%, respectively (n = 6; p < 0.001, control group platelet aggregation was taken as 100%) (Figure 1F). […] Because dietary flavonoids have been reported to bind plasma proteins and cause the lowering of inhibitory potency in PRP ([Wright et al., 2013]), the ability of naringenin and naringin on platelet function in PRP was investigated to compare their effects with washed platelets.
as §1

[5] = inhibitor 5 μmol/L before treatment with naringenin

SMILES: CN(C)CCCn1cc(C2=C(c3c[nH]c4ccccc34)C(=O)NC2=O)c2ccccc21 [GF109203X, reference compound]
- naringenin-induced phosphorylation of VASP at Ser239 after kinase inhibitor [1, 5]: only small changes

SMILES: O=S(=O)(NCCNCC=Cc1ccc(Br)cc1)c1cccc2cnccc12 [H89, N-[2-(p-bromocinnamylamino)ethyl]-5-isoquinolinesulfonamide]
- naringenin-induced phosphorylation of VASP at Ser239 after kinase inhibitor [1, 5]: inhibited the increase in phosphorylation of VASP at Ser239
- level of platelet aggregation, inhibitor alone ([2]; ADP 10 μmol/L, inhibitor 5 μmol/L, without naringenin): did not affect the level of platelet aggregation
- platelet aggregation when incubated with naringenin after kinase inhibitor ([2]; inhibitor 5 μmol/L pre-treatment, ADP 10 μmol/L): significantly restored platelet aggregation levels
- Aggregation (%) ([3]; H89 (5 μM)+ADP (10 μM)): 62.7% and 67.1% and 68.1% and 68.8% and 64.1% and 69.2%

SMILES: C[C@@H]1O[C@@H](O[C@H]2[C@H](Oc3cc(O)c4c(c3)O[C@H](c3ccc(O)cc3)CC4=O)O[C@H](CO)[C@@H](O)[C@@H]2O)[C@H](O)[C@H](O)[C@H]1O [Naringin, naringin, reference compound]
- Aggregation (%) ([4]; compound 100 μM): 56.0% and 55.8% and 53.6% and 54.0% and 60.0%
- Aggregation % of control ([4]; compound 100 μM, 100 µM): 97.5 % of control and 100.8 % of control and 93.6 % of control and 94.3 % of control and 104.8 % of control
- Aggregation (%) ([4]; compound 200 μM): 54.6% and 53.1% and 52.4% and 49.6% and 54.8%
- Aggregation % of control ([4]; compound 200 μM, 200 µM): 92.8 % of control and 97.1 % of control and 91.5 % of control and 86.6 % of control and 95.7 % of control
- Aggregation (%) ([4]; compound 400 μM): 55.9% and 54.0% and 46.2% and 49.8% and 51.2%
- Aggregation % of control ([4]; compound 400 μM, 400 µM): 96.9 % of control and 94.3 % of control and 80.7 % of control and 87.0 % of control and 89.4 % of control
- Aggregation (%) ([4]; compound 800 μM): 46.8% and 40.4% and 51.9% and 43.4%
- Aggregation % of control ([4]; compound 800 μM, 800 µM): 85.1 % of control and 85.9 % of control and 70.6 % of control and 90.7 % of control and 75.8 % of control
- activity at 100 µM ([4]; Rattus norvegicus, compound 100 μM, read-out: Aggregation % of control): 97.8%
- activity at 200 µM ([4]; Rattus norvegicus, compound 200 μM, read-out: Aggregation % of control): 95.4%
- activity at 400 µM ([4]; Rattus norvegicus, compound 400 μM, read-out: Aggregation % of control): 97.6%
- activity at 200 µM ([2]; Rattus norvegicus, Platelet, washed platelets, ADP 10 μmol/L, compound 200 μM, single replicates, read-out: Aggregation % of control): 72.6%
- activity at 400 µM ([2]; Rattus norvegicus, Platelet, washed platelets, ADP 10 μmol/L, compound 400 μM, single replicates, read-out: Aggregation % of control): 79.8%
- ADP-induced platelet aggregation (control group taken as 100%) ([2]; washed platelets, ADP 10 μM, compound 800 μM, mean ± SD, n = 6): 70.8 ± 7.1%
- Aggregation (%) ([2]; washed platelets, ADP 10 μmol/L, compound 100 μM, single replicates): 66.8% and 55.6% and 57.3% and 61.8% and 52.0% and 65.0%
- Aggregation % of control ([2]; washed platelets, ADP 10 μmol/L, compound 100 μM, single replicates, 100 µM): 94.6 % of control and 78.7 % of control and 81.1 % of control and 87.5 % of control and 73.6 % of control and 92.0 % of control
- Aggregation (%) ([2]; washed platelets, ADP 10 μmol/L, compound 200 μM, single replicates): 51.3% and 57.7% and 55.0% and 59.4% and 50.0% and 54.0%
- Aggregation % of control ([2]; washed platelets, ADP 10 μmol/L, compound 200 μM, single replicates, 200 µM): 81.7 % of control and 77.8 % of control and 84.1 % of control and 70.8 % of control and 76.4 % of control
- Aggregation (%) ([2]; washed platelets, ADP 10 μmol/L, compound 400 μM, single replicates): 56.4% and 55.5% and 55.4% and 51.0% and 52.3% and 46.6%
- Aggregation % of control ([2]; washed platelets, ADP 10 μmol/L, compound 400 μM, single replicates, 400 µM): 78.6 % of control and 78.4 % of control and 72.2 % of control and 74.0 % of control and 66.0 % of control
- Aggregation (%) ([2]; washed platelets, ADP 10 μmol/L, compound 800 μM, single replicates): 58.1% and 48.7% and 49.2% and 43.6% and 47.5% and 53.0%
- Aggregation % of control ([2]; washed platelets, ADP 10 μmol/L, compound 800 μM, single replicates, 800 µM): 82.2 % of control and 68.9 % of control and 69.6 % of control and 61.7 % of control and 67.2 % of control and 75.0 % of control

SMILES: O=c1c2nc(Br)n([C@@H]3O[C@@H]4CO[P@@](O)(=S)O[C@H]4[C@H]3O)c2nc2[nH]c(-c3ccccc3)cn12 [Rp-8-Br-PET-cGMPS, Rp-8-Bromo-β-phenyl-1, N2-ethenoguanosine 3´, 5´-cyclic mono-phosphorothioate sodium salt]
- naringenin-induced phosphorylation of VASP at Ser239 after kinase inhibitor ([1]; inhibitor 30 μmol/L before treatment with naringenin): only small changes
- platelet aggregation when incubated with naringenin after kinase inhibitor ([2]; inhibitor 30 μmol/L preincubation, ADP 10 μmol/L): did not affect the final extent of platelet aggregation
- Aggregation (%) ([3]; Rp-8-Br-PET-cGMPS (30 μM)+ADP (10 μM)): 67.3% and 69.8% and 64.5% and 66.3% and 65.0% and 70.4%
